# Assays:
# Type in all cases: physicochemical
# [1] = Solubility and aggregation in mixed water/ethanol solvent (optical absorption spectra, FIG. 7)
# [2] = Solubility and aggregation in pure water
# [3] = Solubility and aggregation in aqueous Triton-X100 solution (optical absorption spectra, FIG. 8, FIG. 9)
substance,measurement,setting,value
[Sb(tbpc)(SO4)(HSO4)].4H2O [Compound 2],aggregation state,[1]; 10% (v/v) ethanol,substantially aggregated form
same,aggregation state,[1]; 30% (v/v) ethanol,a peak ascribable to disaggregated species is clearly observed
same,aggregation state,[1]; 50% ethanol,contribution of aggregated species is negligible
same,water solubility on addition of alcohol,[1]; alcohol added,greatly improved
same,aggregation in pure water,[2],strong aggregation
same,concentration up to which the dye remains disaggregated,"[3]; Triton-X100 2% (w/v), absorbance at around 730 nm (FIG. 9)",20 µM
same,aggregation state above certain concentration of the surfactant,"[3]; aqueous Triton-X100, above certain surfactant concentration (FIG. 8)",remains dissolved in a disaggregated form
same,solubility in the presence of Triton-X100,"[3]; aqueous, Triton-X100 present",grows high

# — patent publication US8524890B2, “Water-soluble phthalocyanine dye” (National Institute for Materials Science, priority 2009, dated 2013)
